{"source": "patent US8628770B2", "about": "“Slimming cosmetic composition containing a substance inducing the production of IL-6” (Sanofi, priority 1999, dated 2014)", "test_system": "mature adipocytes 3T3-L1", "test": "Production of IL-6 by the mature adipocytes 3T3-L1 (ELISA)", "assay_type": "cell-based, murine", "conditions": "reference IL-6 inducer at 50 ng/ml", "source_text": "The biological effects of substance C in vitro has been studied on the murine line 3T3-L1. This preadipocyte line, routinely cultured in DMEM medium ([…]) enriched with 10% foetal calf serum has the property of differentiating into mature adipocytes in the presence of inducers such as insulin and indomethacin (Slieker L. J. Biochem. Biophys. Res. Com. 1998, 251, 225-229). […] This passage from the stage of immature cell to the stage of functional adipocyte can be morphologically assessed by the appearance of intracytoplasmic lipid storage vesicles which are visible under the microscope or which can be biochemically detected by measuring the production of leptin, the hormone for satiety produced solely by mature adipocytes.\nThe influence of substance C on the adipocyte activity was evaluated at two levels. […]\nMature adipocytes 3T3-L1 (harvested after 10 days of differentiation induced by the insulin (5 μg/ml) and indomethacin (125 μm) combination) are stimulated with substance C at 1% (v/v) for 24 hours. The culture supernatant is then removed and its IL-6 content measured by ELISA (Enzyme Linked Immunosorbent Assay) according to the supplier's instructions (R&D Systems, Abingdon, GB). […]", "data": [{"substance": "TNF-α", "values": [{"measurement": "IL-6 content of culture supernatant", "result": 52, "unit": "pg/mL"}]}]}
